Reference: the NIST ThermoML archive (doi:10.1016/j.fluid.2012.11.006)
± gives the expanded uncertainty stated by the source.

O=C(O)c1cc(Br)ccc1Br [2,5-dibromobenzoic acid]
Conditions | vapor or sublimation pressure [kPa]
346.8 K, Crystal, Torsion effusion method | 4.7e-05 ± 2.1e-05
348.6 K, Crystal, Torsion effusion method | 5.7e-05 ± 2.2e-05
350 K, Crystal, Torsion effusion method | 7.6e-05 ± 2.3e-05
350.2 K, Crystal, Torsion effusion method | 7.6e-05 ± 2.3e-05
352.2 K, Crystal, Torsion effusion method | 9.5e-05 ± 2.3e-05
353 K, Crystal, Torsion effusion method | 0.000114 ± 2.5e-05
353.5 K, Crystal, Torsion effusion method | 0.000114 ± 2.5e-05
353.6 K, Crystal, Torsion effusion method | 0.000114 ± 2.5e-05
354.3 K, Crystal, Torsion effusion method | 0.000133 ± 2.8e-05
354.8 K, Crystal, Torsion effusion method | 0.000133 ± 3.1e-05
356.1 K, Crystal, Torsion effusion method | 0.000171 ± 3.1e-05
356.2 K, Crystal, Torsion effusion method | 0.000152 ± 3e-05
356.8 K, Crystal, Torsion effusion method | 0.000171 ± 3e-05
357.3 K, Crystal, Torsion effusion method | 0.000189 ± 3.8e-05
357.8 K, Crystal, Torsion effusion method | 0.000208 ± 3.8e-05
358.3 K, Crystal, Torsion effusion method | 0.000208 ± 2.9e-05
359.2 K, Crystal, Torsion effusion method | 0.000246 ± 3.1e-05
359.6 K, Crystal, Torsion effusion method | 0.000227 ± 3.7e-05
360.2 K, Crystal, Torsion effusion method | 0.000246 ± 3.6e-05
360.4 K, Crystal, Torsion effusion method | 0.000265 ± 3.3e-05
361.5 K, Crystal, Torsion effusion method | 0.000303 ± 5e-05
361.7 K, Crystal, Torsion effusion method | 0.000303 ± 4.9e-05
362.4 K, Crystal, Torsion effusion method | 0.00036 ± 4.4e-05
362.5 K, Crystal, Torsion effusion method | 0.000322 ± 4.2e-05
363 K, Crystal, Torsion effusion method | 0.000379 ± 7e-05
363.8 K, Crystal, Torsion effusion method | 0.000388 ± 5.5e-05
364.6 K, Crystal, Torsion effusion method | 0.000493 ± 4.4e-05
364.7 K, Crystal, Torsion effusion method | 0.000474 ± 4.5e-05
365.6 K, Crystal, Torsion effusion method | 0.000474 ± 6.7e-05
366.2 K, Crystal, Torsion effusion method | 0.000493 ± 5.5e-05
367.3 K, Crystal, Torsion effusion method | 0.000606 ± 0.0001
367.6 K, Crystal, Torsion effusion method | 0.000701 ± 0.0001
367.7 K, Crystal, Torsion effusion method | 0.000682 ± 0.0001
369.1 K, Crystal, Torsion effusion method | 0.000777 ± 7e-05
369.7 K, Crystal, Torsion effusion method | 0.000834 ± 0.0001
370.5 K, Crystal, Torsion effusion method | 0.000853 ± 0.00011
370.7 K, Crystal, Torsion effusion method | 0.000947 ± 0.00011
371.2 K, Crystal, Torsion effusion method | 0.001023 ± 0.00011
372.3 K, Crystal, Torsion effusion method | 0.001099 ± 9.4e-05
373 K, Crystal, Torsion effusion method | 0.001175 ± 0.00013
373.5 K, Crystal, Torsion effusion method | 0.001213 ± 0.00015
373.7 K, Crystal, Torsion effusion method | 0.00127 ± 0.00014
375.4 K, Crystal, Torsion effusion method | 0.001516 ± 0.00021
376.8 K, Crystal, Torsion effusion method | 0.001914 ± 0.00029
376.9 K, Crystal, Torsion effusion method | 0.001762 ± 0.00018
440.2 K, Liquid, non-isothermal thermogravimetric | 0.643 ± 0.11
440.5 K, Liquid, non-isothermal thermogravimetric | 0.663 ± 0.091
441.3 K, Liquid, non-isothermal thermogravimetric | 0.731 ± 0.094
442.1 K, Liquid, non-isothermal thermogravimetric | 0.732 ± 0.095
443.1 K, Liquid, isothermal thermogravimetric | 0.819 ± 0.06
444 K, Liquid, isothermal thermogravimetric | 0.821 ± 0.092
444.1 K, Liquid, isothermal thermogravimetric | 0.835 ± 0.09
444.1 K, Liquid, non-isothermal thermogravimetric | 0.844 ± 0.098
444.6 K, Liquid, non-isothermal thermogravimetric | 0.841 ± 0.092
444.8 K, Liquid, isothermal thermogravimetric | 0.822 ± 0.082
445.4 K, Liquid, non-isothermal thermogravimetric | 0.919 ± 0.092
446.3 K, Liquid, non-isothermal thermogravimetric | 0.924 ± 0.096
447 K, Liquid, isothermal thermogravimetric | 1.031 ± 0.087
448.1 K, Liquid, isothermal thermogravimetric | 1.01 ± 0.091
448.3 K, Liquid, isothermal thermogravimetric | 1.044 ± 0.089
448.3 K, Liquid, non-isothermal thermogravimetric | 1.04 ± 0.1
448.7 K, Liquid, isothermal thermogravimetric | 1.012 ± 0.089
448.8 K, Liquid, non-isothermal thermogravimetric | 1.066 ± 0.1
449.2 K, Liquid, non-isothermal thermogravimetric | 1.146 ± 0.1
